Laboratory results taken from patent US20250025443A1, “COMPOUNDS AND METHODS FOR TREATING CORONA VIRUSES” (CLEAR CREEK BIO, INC., priority 2021, published 2025).

Each molecule was assayed against SARS-CoV-2 Papain-Like Protease (PLpro) (Severe acute respiratory syndrome coronavirus 2 (2019-nCoV) (SARS-CoV-2), UniProt P0DTD1) (assay: biochemical). Conditions: PLpro IC50, SARS-CoV-2 PLpro enzymatic fluorescence assay.

Molecule | IC50
Cc1cc2c(CCN)c[nH]c2cc1C(=O)NC1(c2cccc3ccccc23)CC1 [Compound 292, 3-(2-Aminoethyl)-5-methyl-N-(1-(naphthalen-1-yl)cyclopropyl)-1H-indole-6-carboxamide] | 100 to 1000 nM

Same assay, conditions: PLpro enzymatic fluorescence assay; class symbols; read-out: PLpro IC50

Molecule | IC50
Cc1ccc(OC[C@@H]2CCN2C)cc1C(=O)NC1(c2cc(-n3cccn3)cc3ncccc23)CC1 [Compound 619, (S)-N-(1-(7-(1H-Pyrazol-1-yl)quinolin-5-yl)cyclopropyl)-2-methyl-5-((1-methylazetidin-2-yl)methoxy)benzamide] | < 100 nM
COc1cc(C2(NC(=O)c3cc(OC[C@@H]4CCN4C)ccc3C)CC2)c2ccc(C(F)(F)F)nc2c1 [Compound 817, (S)-N-(1-(7-Methoxy-2-(trifluoromethyl)quinolin-5-yl)cyclopropyl)-2-methyl-5-((1-methylazetidin-2-yl)methoxy)benzamide] | < 100 nM
(S)-2-Methyl-N-(1-(2-methyl-7-((2,2,2-trifluoroethyl)amino)quinolin-5-yl)cyclopropyl)-5-((1-methylazetidin-2-yl)methoxy)benzamide [Compound 807] | < 100 nM
CN[C@H](C)COc1ccc(C)c(C(=O)NC2(c3cc(OC)cc4ncccc34)CC2)c1 [Compound 573, (R)-N-(1-(7-Methoxyquinolin-5-yl)cyclopropyl)-2-methyl-5-(2-(methylamino)propoxy)benzamide] | < 100 nM
COc1cc(C2(NC(=O)c3cc(OC[C@@H]4CCN4CCF)ccc3C)CC2)c2cccnc2c1 [Compound 567, (S)-5-((1-(2-Fluoroethyl)azetidin-2-yl)methoxy)-N-(1-(7-methoxyquinolin-5-yl)cyclopropyl)-2-methylbenzamide] | < 100 nM
Cc1ccc(N2CC(N)C2)cc1C(=O)NC1(c2cccc3ccccc23)CC1 [Compound 464, 5-(3-Aminoazetidin-1-yl)-2-methyl-N-(1-(naphthalen-1-yl)cyclopropyl)benzamide] | < 100 nM
C=Cc1cc(C2(NC(=O)c3cc(OC[C@@H]4CCN4C)c(O)cc3C)CC2)c2cccnc2c1 [Compound 755, (S)-4-Hydroxy-2-methyl-5-((1-methylazetidin-2-yl)methoxy)-N-(1-(7-vinylquinolin-5-yl)cyclopropyl)benzamide] | < 100 nM
Cc1ccc(OC[C@@H]2CCN2C)cc1C(=O)NC1(c2cc(-c3ccn(C)n3)cc3ncccc23)CC1 [Compound 582, (S)-2-Methyl-N-(1-(7-(1-methyl-1H-pyrazol-3-yl)quinolin-5-yl)cyclopropyl)-5-((1-methylazetidin-2-yl)methoxy)benzamide] | < 100 nM
Cc1ccc(OC[C@@H]2CCN2C)cc1C(=O)NC1(c2cc(Oc3ccccc3)cc3ncccc23)CC1 [Compound 592, (S)-2-Methyl-5-((1-methylazetidin-2-yl)methoxy)-N-(1-(7-phenoxyquinolin-5-yl)cyclopropyl)benzamide] | < 100 nM
CNc1cc(C)c(C(=O)NC2(c3cc(OC)cc4ncccc34)CC2)cc1OC[C@@H]1CCN1C [Compound 737, (S)-N-(1-(7-Methoxyquinolin-5-yl)cyclopropyl)-2-methyl-4-(methylamino)-5-((1-methylazetidin-2-yl)methoxy)benzamide] | < 100 nM
COc1cc(C2(NC(=O)c3cc(OCCN(C)CCF)ccc3C)CC2)c2cccnc2c1 [Compound 571, 5-(2-((2-Fluoroethyl)(methyl)amino)ethoxy)-N-(1-(7-methoxyquinolin-5-yl)cyclopropyl)-2-methylbenzamide] | < 100 nM
Cc1ccc(OC[C@@H]2CCN2C)cc1C(=O)NC1(c2cc(-c3ccc(CNC4CCCC4)s3)cc3ncccc23)CC1 [Compound 752, (S)—N-(1-(7-(5-((Cyclopentylamino)methyl)thiophen-2-yl)quinolin-5-yl)cyclopropyl)-2-methyl-5-((1-methylazetidin-2-yl)methoxy)benzamide] | < 100 nM
COc1cc(C2(NC(=O)c3cc(O[C@H]4CC[C@@H]5CN(C)CCN5C4)ccc3C)CC2)c2cccnc2c1 [Compound 783] | < 100 nM
Cc1ccc(OC[C@@H]2CCN2)cc1C(=O)NC1(c2cc(/C=C/C3CC3)cc3ncccc23)CC1 [Compound 667, (S,E)-5-(Azetidin-2-ylmethoxy)-N-(1-(7-(2-cyclopropylvinyl)quinolin-5-yl)cyclopropyl)-2-methylbenzamide] | < 100 nM

Same assay, conditions: SARS-CoV-2 PLpro enzymatic fluorescence assay; read-out: PLpro IC50

Molecule | IC50
Cc1cc2ccn(C3CNC3)c2cc1C(=O)NC1(c2cccc3ccccc23)CC1 [Compound 218, 1-(Azetidin-3-yl)-5-methyl-N-(1-(naphthalen-1-yl)cyclopropyl)-1H-indole-6-carboxamide] | < 100 nM
COc1cc(C2(NC(=O)c3cc(OC[C@@H]4CCCN4C)ccc3C)CC2)c2cccnc2c1 [Compound 528, (S)-N-(1-(7-Methoxyquinolin-5-yl)cyclopropyl)-2-methyl-5-((1-methylpyrrolidin-2-yl)methoxy)benzamide] | < 100 nM
Cc1ccc(OCCN(C)C)cc1C(=O)NC1(c2cccc(C3=CCCC3)c2)CC1 [Compound 264, N-(1-(3-(Cyclopent-1-en-1-yl)phenyl)cyclopropyl)-5-(2-(dimethylamino)ethoxy)-2-methylbenzamide] | 1000 to 5000 nM
Cc1ccc(OCCNC(=O)OC(C)(C)C)cc1C(=O)N[C@H](C)c1cccc2ccccc12 [Compound 158, (R)-tert-Butyl(2-(4-methyl-3-((1-(naphthalen-1-yl)ethyl)carbamoyl)phenoxy)ethyl)carbamate] | 1000 to 5000 nM
Cc1ccc(OC[C@H]2CCCN2)cc1C(=O)NC1(c2cccc3ncccc23)CC1 [Compound 371, (R)-2-methyl-5-(pyrrolidin-2-ylmethoxy)-N-(1-(quinolin-5-yl)cyclopropyl)benzamide] | < 100 nM
COC(=O)/C=C/C(=O)NNC(=O)CCc1ccccc1C(=O)NC1(c2cccc3ccccc23)CC1 [Compound 373, (E)-Methyl 4-(2-(3-(2-((1-(naphthalen-1-yl)cyclopropyl)carbamoyl)phenyl)propanoyl) hydrazinyl)-4-oxobut-2-enoate] | < 100 nM
Cc1ccc(OCC2CCN2C)cc1C(=O)NC1(c2cccc3cnc(O)cc23)CC1 (stereo not shown) [Compound 509, N-(1-(3-Hydroxyisoquinolin-5-yl)cyclopropyl)-2-methyl-5-((1-methylazetidin-2-yl)methoxy)benzamide] | 100 to 1000 nM
Cc1ccc(OC[C@H]2CCN2)cc1C(=O)NC1(c2cccc3ncccc23)CC1 [Compound 383, (R)-5-(Azetidin-2-ylmethoxy)-2-methyl-N-(1-(quinolin-5-yl)cyclopropyl)benzamide] | < 100 nM
Cc1ccc(OCC(N)=O)cc1C(=O)NC1(c2cccc3ccccc23)CC1 [Compound 285, 5-(2-Amino-2-oxoethoxy)-2-methyl-N-(1-(naphthalen-1-yl)cyclopropyl)benzamide] | 100 to 1000 nM
Cc1ccc(OCCN(C)C)cc1C(=O)NC1(c2cccc3ccc(O)cc23)CC1 [Compound 417, 5-(2-(Dimethylamino)ethoxy)-N-(1-(7-hydroxynaphthalen-1-yl)cyclopropyl)-2-methylbenzamide] | < 100 nM
Cc1ccc(OCCNCC2CC2)cc1C(=O)NC1(c2cccc3ccccc23)CC1 [Compound 361, 5-(2-((Cyclopropylmethyl)amino)ethoxy)-2-methyl-N-(1-(naphthalen-1-yl)cyclopropyl)benzamide] | < 100 nM
Cc1cc2c(cc1C(=O)N[C@H](C)c1cccc3ccccc13)OCO2 [Compound 145, (R)-6-Methyl-N-(1-(naphthalen-1-yl)ethyl)benzo[d][1,3]dioxole-5-carboxamide] | 1000 to 5000 nM
Cc1cc2c(cc1C(=O)NC1(c3cccc4ccccc34)CC1)n(C)c(=O)n2C [Compound 237, 1,3,6-Trimethyl-N-(1-(naphthalen-1-yl)cyclopropyl)-2-oxo-2,3-dihydro-1H-benzo[d]imidazole-5-carboxamide] | 1000 to 5000 nM
Cc1cc2cc(CN(C)C)n(CO)c2cc1C(=O)N[C@H](C)c1cccc2ccccc12 [Compound 192, (R)-2-((Dimethylamino)methyl)-1-(hydroxymethyl)-5-methyl-N-(1-(naphthalen-1-yl)ethyl)-1H-indole-6-carboxamide] | 100 to 1000 nM
Cc1cc(C2(NC(=O)c3cc(OCC4CCN4C)ccc3C)CC2)c2ccccc2c1 (stereo not shown) [Compound 501, 2-Methyl-5-((1-methylazetidin-2-yl)methoxy)-N-(1-(3-methylnaphthalen-1-yl)cyclopropyl)benzamide] | < 100 nM
Cc1cnc(OCCN(C)C)nc1C(=O)NC1(c2cccc3ccccc23)CC1 [Compound 350, 2-(2-(Dimethylamino)ethoxy)-5-methyl-N-(1-(naphthalen-1-yl)cyclopropyl)pyrimidine-4-carboxamide] | 1000 to 5000 nM
Cc1ccc(C2(NC(=O)c3cc(OCCN(C)C)ccc3C)CC2)cc1 [Compound 253, 5-(2-(Dimethylamino)ethoxy)-2-methyl-N-(1-(p-tolyl)cyclopropyl)benzamide] | > 5000 nM
Cc1cc2cc(-c3ccccn3)[nH]c2cc1C(=O)NC1(c2cccc3ccccc23)CC1 [Compound 234, 5-Methyl-N-(1-(naphthalen-1-yl)cyclopropyl)-2-(pyridin-2-yl)-1H-indole-6-carboxamide] | 100 to 1000 nM
Cc1ccc(OCCN(C)C)c(F)c1C(=O)NC1(c2cccc3ccccc23)CC1 [Compound 311, 3-(2-(Dimethylamino)ethoxy)-2-fluoro-6-methyl-N-(1-(naphthalen-1-yl)cyclopropyl)benzamide] | 100 to 1000 nM
Cc1ccc(OCC2CCN2C)cc1C(=O)NC1(c2cc(NC(=O)OC(C)(C)C)cc3ccccc23)CC1 (stereo not shown) [Compound 482, tert-Butyl(4-(1-(2-methyl-5-((1-methylazetidin-2-yl)methoxy)benzamido)cyclopropyl)naphthalen-2-yl)carbamate] | < 100 nM
Cc1ccc(OCCN(C)C)cc1C(=O)NC1(c2ccccc2-c2ccncc2)CC1 [Compound 266, 5-(2-(Dimethylamino)ethoxy)-2-methyl-N-(1-(2-(pyridin-4-yl)phenyl)cyclopropyl)benzamide] | > 5000 nM
Cc1ccc(OC[C@H]2C[C@H](O)CN2C)cc1C(=O)NC1(c2cccc3ccccc23)CC1 (single isomer, unassigned) [Compound 439] | < 100 nM
